According to patent US12428406B2 (PMV Pharmaceuticals, Inc., priority 2019, dated 2025):

biological target: T1, p53 Y220C (Homo sapiens, UniProt P04637, Y220C); assay: In vitro DNA binding activity assay (HTRF / TR-FRET): stabilization of p53 Y220C and increase of its DNA binding activity; format: biochemical; conditions: recombinant His-tagged p53 Y220C DNA binding domain (aa 94-312), biotin-labeled consensus DNA, incubated at 27° C. or 29° C. for 60 min
T1 construct: The recombinant protein was a truncation mutant containing only amino acids 94-312 of p53; made in house; host or cells: E. coli
In short: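 Compounds from 4.5 mM DMSO stocks, 3-fold serial dilutions; room-temperature incubations of 15 and 20 min. SC150 = concentration raising DNA binding by 50% over no-compound control.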

T1 sequence (P04637 94-312, change not shown): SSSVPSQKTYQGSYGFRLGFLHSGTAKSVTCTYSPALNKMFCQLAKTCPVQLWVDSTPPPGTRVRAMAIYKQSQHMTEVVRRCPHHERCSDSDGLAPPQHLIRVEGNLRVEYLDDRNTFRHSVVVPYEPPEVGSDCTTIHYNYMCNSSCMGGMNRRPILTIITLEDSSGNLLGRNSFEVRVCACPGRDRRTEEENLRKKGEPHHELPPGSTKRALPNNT

SMILES | SC150 (concentration of the compound required to increase the DNA binding activity by 50%)
CN1CCC(Nc2cccc3c2cc(C#CCOc2ccc(S(C)(=O)=O)cc2N(C)C)n3CC(F)(F)F)CC1 [Compound 488A, 2-{3-[2-(dimethylamino)-4-methanesulfonylphenoxy]prop-1-yn-1-yl}-N-(1-methylpiperidin-4-yl)-1-(2,2,2-trifluoroethyl)-1H-indol-4-amine] | +++ (+++ = 0.1 μM ≤ SC150 < 0.2 μM)
CN1CCC(Nc2cccc3c2cc(C#CCNc2ccc(S(C)(=O)=O)cc2OCC#N)n3CC(F)(F)F)CC1 [Compound 489A, 2-{5-methanesulfonyl-2-[(3-{4-[(1-methylpiperidin-4-yl)amino]-1-(2,2,2-trifluoroethyl)-1H-indol-2-yl}prop-2-yn-1-yl)amino]phenoxy} acetonitrile] | + (+ = 0 μM ≤ SC150 < 0.05 μM)
COc1cc(C(=O)N2CCOCC2)ccc1NCC#Cc1cc2c(NC3CCN(C)CC3)cccc2n1CC(F)(F)F [Compound 491A] | + (+ = 0 μM ≤ SC150 < 0.05 μM)
COc1cc(C(=O)N2CCC(O)CC2)ccc1NCC#Cc1cc2c(NC3CCN(C)CC3)cccc2n1CC(F)(F)F [Compound 492A] | + (+ = 0 μM ≤ SC150 < 0.05 μM)
COc1cc(C(=O)NC2CCN(C)CC2)ccc1NCC#Cc1cc2c(NC3CCN(C)CC3)cccc2n1CC(F)(F)F [Compound 498A] | + (+ = 0 μM ≤ SC150 < 0.05 μM)
COc1cc(C(=O)N2CCC(N(C)C)CC2)ccc1NCC#Cc1cc2c(NC3CCN(C)CC3)cccc2n1CC(F)(F)F [Compound 499A, 2-[3-({4-[4-(dimethylamino)piperidine-1-carbonyl]-2-methoxyphenyl}amino)prop-1-yn-1-yl]-N-(1-methylpiperidin-4-yl)-1-(2,2,2-trifluoroethyl)-1H-indol-4-amine] | + (+ = 0 μM ≤ SC150 < 0.05 μM)
COc1cc(C(=O)NC2CCOCC2)ccc1NCC#Cc1cc2c(NC3CCN(C)CC3)cccc2n1CC(F)(F)F [Compound 500A, 3-methoxy-4-[(3-{4-[(1-methylpiperidin-4-yl)amino]-1-(2,2,2-trifluoroethyl)-1H-indol-2-yl}prop-2-yn-1-yl)amino]-N-(oxan-4-yl)benzamide] | + (+ = 0 μM ≤ SC150 < 0.05 μM)
COc1cc(C(=O)N2CCN(C)CC2)ccc1NCC#Cc1cc2c(NC3CCN(C)CC3)cccc2n1CC(F)(F)F [Compound 501A, 2-(3-{[2-methoxy-4-(4-methylpiperazine-1-carbonyl)phenyl]amino}prop-1-yn-1-yl)-N-(1-methylpiperidin-4-yl)-1-(2,2,2-trifluoroethyl)-1H-indol-4-amine] | + (+ = 0 μM ≤ SC150 < 0.05 μM)
COc1cc(C(=O)N2CC3(COC3)C2)ccc1NCC#Cc1cc2c(NC3CCN(C)CC3)cccc2n1CC(F)(F)F [Compound 502A, 2-{3-[(2-methoxy-4-{2-oxa-6-azaspiro[3.3]heptane-6-carbonyl}phenyl)amino]prop-1-yn-1-yl}-N-(1-methylpiperidin-4-yl)-1-(2,2,2-trifluoroethyl)-1H-indol-4-amine] | + (+ = 0 μM ≤ SC150 < 0.05 μM)
CN1CCC(Nc2cccc3c2cc(C#CCNC(=O)c2cccnc2)n3CC(F)(F)F)CC1 [Compound 505A, N-(3-{4-[(1-methylpiperidin-4-yl)amino]-1-(2,2,2-trifluoroethyl)-1H-indol-2-yl}prop-2-yn-1-yl)pyridine-3-carboxamide] | +++ (+++ = 0.1 μM ≤ SC150 < 0.2 μM)
CN1CCC(Nc2cccc3c2cc(C#CCNc2cccc(S(C)(=O)=O)c2)n3CC(F)(F)F)CC1 [Compound 507A, 2-{3-[(3-methanesulfonylphenyl)amino]prop-1-yn-1-yl}-N-(1-methylpiperidin-4-yl)-1-(2,2,2-trifluoroethyl)-1H-indol-4-amine] | ++ (++ = 0.05 μM ≤ SC150 < 0.1 μM)
CN1CCC(Nc2cccc3c2cc(C#CCNc2ccc(CN4CCOCC4)cc2)n3CC(F)(F)F)CC1 [Compound 508A, N-(1-methylpiperidin-4-yl)-2-[3-({4-[(morpholin-4-yl)methyl]phenyl}amino)prop-1-yn-1-yl]-1-(2,2,2-trifluoroethyl)-1H-indol-4-amine] | + (+ = 0 μM ≤ SC150 < 0.05 μM)
COc1cc(C(=O)N2CC3(CCOCC3)C2)ccc1NCC#Cc1cc2c(NC3CCN(C)CC3)cccc2n1CC(F)(F)F [Compound 511A, 2-{3-[(2-methoxy-4-{7-oxa-2-azaspiro[3.5]nonane-2-carbonyl}phenyl)amino]prop-1-yn-1-yl}-N-(1-methylpiperidin-4-yl)-1-(2,2,2-trifluoroethyl)-1H-indol-4-amine] | + (+ = 0 μM ≤ SC150 < 0.05 μM)

Other lines, results leading:

SC150 (concentration of the compound required to increase the DNA binding activity by 50%) | SMILES
++ (++ = 0.05 μM ≤ SC150 < 0.1 μM) | COc1cc(NC2CCN(C)CC2)c2cc(C#CCNc3ccc(S(C)(=O)=O)cc3OC)n(CC(F)(F)F)c2c1 [Compound 487A, 2-{3-[(4-methanesulfonyl-2-methoxyphenyl)amino]prop-1-yn-1-yl}-6-methoxy-N-(1-methylpiperidin-4-yl)-1-(2,2,2-trifluoroethyl)-1H-indol-4-amine]
+ (+ = 0 μM ≤ SC150 < 0.05 μM) | CN1CCC(Nc2cccc3c2cc(C#CCNc2ccc(S(C)(=O)=O)cc2OCF)n3CC(F)(F)F)CC1 [Compound 490A, 2-(3-{[2-(fluoromethoxy)-4-methanesulfonylphenyl]amino}prop-1-yn-1-yl)-N-(1-methylpiperidin-4-yl)-1-(2,2,2-trifluoroethyl)-1H-indol-4-amine]
+ (+ = 0 μM ≤ SC150 < 0.05 μM) | COc1cncc(-c2ccc(NCC#Cc3cc4c(NC5CCN(C)CC5)cccc4n3CC(F)(F)F)c(OC)c2)c1 [Compound 494A, 2-(3-{[2-methoxy-4-(5-methoxypyridin-3-yl)phenyl]amino}prop-1-yn-1-yl)-N-(1-methylpiperidin-4-yl)-1-(2,2,2-trifluoroethyl)-1H-indol-4-amine]
+++ (+++ = 0.1 μM ≤ SC150 < 0.2 μM) | COc1ccc(S(C)(=O)=O)cc1NCC#Cc1cc2c(NC3CCN(C)CC3)cccc2n1CC(F)(F)F [Compound 495A, 2-{3-[(5-methanesulfonyl-2-methoxyphenyl)amino]prop-1-yn-1-yl}-N-(1-methylpiperidin-4-yl)-1-(2,2,2-trifluoroethyl)-1H-indol-4-amine]
+ (+ = 0 μM ≤ SC150 < 0.05 μM) | COc1cc(C(=O)NCCO)ccc1NCC#Cc1cc2c(NC3CCN(C)CC3)cccc2n1CC(F)(F)F [Compound 496A]
+ (+ = 0 μM ≤ SC150 < 0.05 μM) | COCCNC(=O)c1ccc(NCC#Cc2cc3c(NC4CCN(C)CC4)cccc3n2CC(F)(F)F)c(OC)c1 [Compound 497A]
++ (++ = 0.05 μM ≤ SC150 < 0.1 μM) | COc1cc(-c2cccnc2)ccc1NCC#Cc1cc2c(NC3CCN(C)CC3)cccc2n1CC(F)(F)F [Compound 503A, 2-(3-{[2-methoxy-4-(pyridin-3-yl)phenyl]amino}prop-1-yn-1-yl)-N-(1-methylpiperidin-4-yl)-1-(2,2,2-trifluoroethyl)-1H-indol-4-amine]
+ (+ = 0 μM ≤ SC150 < 0.05 μM) | COc1cc(-c2ccncc2)ccc1NCC#Cc1cc2c(NC3CCN(C)CC3)cccc2n1CC(F)(F)F [Compound 504A, 2-(3-{[2-methoxy-4-(pyridin-4-yl)phenyl]amino}prop-1-yn-1-yl)-N-(1-methylpiperidin-4-yl)-1-(2,2,2-trifluoroethyl)-1H-indol-4-amine]
+ (+ = 0 μM ≤ SC150 < 0.05 μM) | COc1cc(-c2ncco2)ccc1NCC#Cc1cc2c(NC3CCN(C)CC3)cccc2n1CC(F)(F)F [Compound 506A, 2-(3-{[2-methoxy-4-(1,3-oxazol-2-yl)phenyl]amino}prop-1-yn-1-yl)-N-(1-methylpiperidin-4-yl)-1-(2,2,2-trifluoroethyl)-1H-indol-4-amine]
+ (+ = 0 μM ≤ SC150 < 0.05 μM) | COc1cc(-c2nccs2)ccc1NCC#Cc1cc2c(NC3CCN(C)CC3)cccc2n1CC(F)(F)F [Compound 509A, 2-(3-{[2-methoxy-4-(1,3-thiazol-2-yl)phenyl]amino}prop-1-yn-1-yl)-N-(1-methylpiperidin-4-yl)-1-(2,2,2-trifluoroethyl)-1H-indol-4-amine]
+ (+ = 0 μM ≤ SC150 < 0.05 μM) | COCCn1cc(-c2ccc(NCC#Cc3cc4c(NC5CCN(C)CC5)cccc4n3CC(F)(F)F)c(OC)c2)cn1 [Compound 510A, 2-[3-({2-methoxy-4-[1-(2-methoxyethyl)-1H-pyrazol-4-yl]phenyl}amino)prop-1-yn-1-yl]-N-(1-methylpiperidin-4-yl)-1-(2,2,2-trifluoroethyl)-1H-indol-4-amine]
++ (++ = 0.05 μM ≤ SC150 < 0.1 μM) | COc1cc(Cl)ccc1NCC#Cc1cc2c(NC3CCN(C)CC3)cccc2n1CC(F)(F)F [Compound 512A, 2-{3-[(4-chloro-2-methoxyphenyl)amino]prop-1-yn-1-yl}-N-(1-methylpiperidin-4-yl)-1-(2,2,2-trifluoroethyl)-1H-indol-4-amine]
